Measurements as given in patent US8574569B2, “Stabilized protease composition” (Trobio AB, priority 2005, dated 2013).
Like-named read-outs stand apart in the source and are kept apart here.

Assays:
human thrombin [1] = target: T1, human thrombin (Homo sapiens, UniProt P00734); assay: Stability of human thrombin solutions (fibrinogen clotting activity decay curves, T 70%); type: physicochemical; design: The thrombin used in the study is human thrombin derived from plasma; purchased Biovitrum AB, Sweden; host or cells: human plasma
Procedure: This value, denoted “T 70%”, is chosen since it corresponds to what could be accepted as a maximum permitted loss in activity during a life span of a commercial product.
In the experimental studies, a high temperature (37° C.) has been used, as well as a high concentration of enzyme. This has been made in order to obtain stability data in reasonably short times, and not have to wait for months or years.
(§1) The clotting times were measured using an Amelungen Kc 1 coagulometer (Amelungen, Germany). […] From the values obtained, activity decay curves could be constructed.

plasmin = target: T2, plasmin (Homo sapiens, UniProt P00747); assay: Stability of plasmin solutions (Chromozym TH chromogenic substrate, T 70%); type: physicochemical; conditions: for T 70%: 100 μg/ml plasmin in 10 mM HEPES, 0.13 M NaCl, pH 7.4, 37° C.; for increase in stability of plasmin composition, factor: T 70% relative to plasmin without additives, 37° C.
T2 construct: 100 μg/ml of plasmin (specific activity 3.2 units/mg, Sigma-Aldrich); purchased Sigma-Aldrich
T2 sequence (P00747 581-810 limits assumed, species assumed): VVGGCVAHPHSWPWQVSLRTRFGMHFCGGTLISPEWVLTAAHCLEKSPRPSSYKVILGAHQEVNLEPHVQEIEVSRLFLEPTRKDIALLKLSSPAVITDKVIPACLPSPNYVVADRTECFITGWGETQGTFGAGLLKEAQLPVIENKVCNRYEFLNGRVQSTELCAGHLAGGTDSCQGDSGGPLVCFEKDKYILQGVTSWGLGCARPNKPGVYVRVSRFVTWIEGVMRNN
T2 sequence (P00747 97-580 partner limits assumed, species assumed): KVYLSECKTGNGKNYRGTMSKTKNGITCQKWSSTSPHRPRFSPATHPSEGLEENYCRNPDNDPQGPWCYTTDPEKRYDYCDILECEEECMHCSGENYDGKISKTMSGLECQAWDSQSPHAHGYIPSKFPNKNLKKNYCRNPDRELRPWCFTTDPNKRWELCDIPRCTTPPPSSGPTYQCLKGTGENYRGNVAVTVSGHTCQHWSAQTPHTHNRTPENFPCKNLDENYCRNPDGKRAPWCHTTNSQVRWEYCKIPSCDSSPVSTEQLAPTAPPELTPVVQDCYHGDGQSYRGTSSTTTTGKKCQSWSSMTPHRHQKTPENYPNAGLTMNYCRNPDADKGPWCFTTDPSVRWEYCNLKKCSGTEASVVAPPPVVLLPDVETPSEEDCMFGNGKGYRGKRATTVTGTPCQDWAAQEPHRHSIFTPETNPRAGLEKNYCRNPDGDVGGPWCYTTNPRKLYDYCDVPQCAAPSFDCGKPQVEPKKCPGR
Procedure: The stabilization of solutions of plasmin in accordance with the invention was tested. The activity of plasmin was determined using chromogenic peptide substrate Chromozym TH (Pentapharm, Switzerland) and measurement of absorbance change at 405 nm in a spectrophotometer. Solutions containing 100 μg/ml of plasmin (specific activity 3.2 units/mg, Sigma-Aldrich) in 10 mM HEPES and 0.13 M NaCl, pH 7.4, as well as stabilizers as indicated in Table 2 below were incubated at 37° C., and samples were taken out at various time intervals for activity determination.

human thrombin [2] = target: T1, human thrombin; conditions: for Apparent inhibition (%) / Apparent thrombin concentration (U/ml): 89 units/ml human thrombin, 0.01 M HEPES, 0.13 M NaCl, pH 7.4
Procedure: The clotting tests in this experimental setup were performed in 0.01 M HEPES, 0.13 M NaCl buffer of pH 7.4, which is according to standard procedure (EU Pharmacopeia). […] Solutions of various concentrations of morpholine were prepared in the HEPES buffer by adding a concentrated morpholine solution adjusted to pH 7.4.

trypsin = target: T3, trypsin (Bos taurus, UniProt P00760); assay: Stability of trypsin solutions (TAME substrate, T 70%); type: physicochemical; conditions: for T 70%: 100 μg/ml trypsin in 10 mM HEPES, 0.13 M NaCl, pH 7.4, 37° C.; for increase in stabilization of trypsin, factor: T 70% relative to trypsin without additives, 37° C.
T3 construct: 100 μg/ml of trypsin (TPCK-treated, Sigma-Aldrich); purchased Sigma-Aldrich
T3 sequence (P00760 24-246): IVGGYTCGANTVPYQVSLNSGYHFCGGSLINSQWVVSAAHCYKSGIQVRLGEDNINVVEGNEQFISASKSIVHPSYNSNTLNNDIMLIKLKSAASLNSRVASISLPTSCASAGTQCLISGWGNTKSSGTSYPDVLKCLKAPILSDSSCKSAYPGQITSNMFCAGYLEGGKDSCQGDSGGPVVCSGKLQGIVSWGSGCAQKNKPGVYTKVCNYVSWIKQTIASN
Procedure: The stabilization of solutions of trypsin in accordance with the invention was tested. The activity of trypsin was determined using tosyl arginine methyl ester (TAME) as substrate and measuring the absorbance change at 247 nm in a spectrophotometer. Solutions containing 100 μg/ml of trypsin (TPCK-treated, Sigma-Aldrich) in 10 mM HEPES and 0.13 M NaCl, pH 7.4, as well as stabilizers as indicated in Table 3 below were incubated at 37° C., and samples were taken out at various time intervals for activity determination.

bovine thrombin = target: T4, bovine thrombin (Bos taurus, UniProt P00735); assay: Stability of bovine thrombin solutions (T 70%); type: physicochemical; conditions: 0.4 mg/ml bovine thrombin (Baxter) in HEPES buffer, 37° C.
T4 construct: purchased Baxter
Procedure: as §1

human thrombin [3] = target: T1, human thrombin; assay: Stability of human thrombin solutions (fibrinogen clotting activity decay curves, T 70%); type: physicochemical; design: The thrombin used in the study is human thrombin derived from plasma; purchased Biovitrum AB, Sweden; host or cells: human plasma; conditions: 1 mg/ml thrombin in 10 mM HEPES, 0.13 M NaCl, pH 7.4
[4] = T 70% relative to 1 mg/ml thrombin without additives, 37° C.
[5] = time to reach 70% of initial activity, 1 mg/ml thrombin in 10 mM HEPES, 0.13 M NaCl, pH 7.4, 37° C.

O=S(=O)(O)CCCN1CCOCC1 [MOPS, 3-(N-morpholino)propanesulfonic acid]
increase in stabilization, factor (human thrombin [1]; [4]): 4.7
T 70% (human thrombin [1]; pH 7.4): 7.5 days

CCN(CC)CCN [N,N-diethylethylenediamine]
T 70% (plasmin): 8 h
increase in stability of plasmin composition, factor (plasmin): 2.7
T 70% (human thrombin [1]; [5]): 10 days

[Cl-].[Na+] [NaCl, reference compound]
Apparent inhibition (%) (human thrombin [2]; 0.05 M added): 17%
Apparent thrombin concentration (U/ml) (human thrombin [2]; 0.05 M added): 74 U/ml
Apparent inhibition (%) (human thrombin [2]; 0.10 M added): 40%
Apparent thrombin concentration (U/ml) (human thrombin [2]; 0.10 M added): 53 U/ml
Apparent inhibition (%) (human thrombin [2]; 0.15 M added): 34%
Apparent thrombin concentration (U/ml) (human thrombin [2]; 0.15 M added): 58 U/ml
Apparent inhibition (%) (human thrombin [2]; 0.20 M added): 37%
Apparent thrombin concentration (U/ml) (human thrombin [2]; 0.20 M added): 55 U/ml

N=C(N)c1ccccc1 [benzamidine, reference compound]
T 70% (plasmin): 16 h
T 70% (trypsin): 43 h
increase in stabilization of trypsin, factor (trypsin): 72

C1COCCN1 [morpholine]
T 70% (plasmin): 12 h
increase in stability of plasmin composition, factor (plasmin): 4
Apparent inhibition (%) (human thrombin [2]; 0.05 M added): 4%
Apparent thrombin concentration (U/ml) (human thrombin [2]; 0.05 M added): 87 U/ml
Apparent inhibition (%) (human thrombin [2]; 0.10 M added): 20%
Apparent thrombin concentration (U/ml) (human thrombin [2]; 0.10 M added): 71 U/ml
Apparent inhibition (%) (human thrombin [2]; 0.15 M added): 45%
Apparent thrombin concentration (U/ml) (human thrombin [2]; 0.15 M added): 49 U/ml
Apparent inhibition (%) (human thrombin [2]; 0.20 M added): 43%
Apparent thrombin concentration (U/ml) (human thrombin [2]; 0.20 M added): 51 U/ml
inhibitor of thrombin (conclusion) (human thrombin [2]; clotting time prolongation ascribed to ionic strength): not an inhibitor of thrombin
T 70% (human thrombin [1]; [5]): 8.5 days
T 70% (trypsin): 8 h
increase in stabilization of trypsin, factor (trypsin): 13

O=S(=O)(O)CCCCN1CCOCC1 [morpholino butyl sulphonic acid]
T 70% (human thrombin [1]; [5]): 4.0 days

OCCN1CCOCC1 [morpholino ethyl alcohol]
T 70% (human thrombin [1]; [5]): 3.8 days

O=S(=O)(O)CCN1CCOCC1 [morpholino ethyl sulphonic acid]
T 70% (human thrombin [1]; [5]): 3.2 days

O=C(O)CCCN1CCOCC1 [morpholino propyl carboxylic acid]
T 70% (human thrombin [1]; [5]): 4.1 days

N-(2′-phenoxy)-4-aminopyridin
increase in stabilization, factor (human thrombin [1]; [4]): 22
T 70% (human thrombin [1]; time to reach 70% of initial activity, 1 mg/ml thrombin in 10 mM HEPES, 0.13 M NaCl, pH 7.4, 37° C., listed as 1.9 mM N-(2′-phenoxy)-4-aminopyridin): 35 days
T 70% (human thrombin [1]; time to reach 70% of initial activity, 1 mg/ml thrombin in 10 mM HEPES, 0.13 M NaCl, pH 7.4, 37° C., listed as 3.1 mM N-(2′-phenoxy)-4-aminopyridin): 74 days

aminobenzamidine [reference compound]
T 70% (plasmin): 52 h
increase in stability of plasmin composition, factor (plasmin): 17
increase in stabilization, factor (human thrombin [1]): 12.5
T 70% (human thrombin [1]; pH 7.4): 20 days

bovine thrombin: bovine thrombin (Baxter), solution in HEPES buffer without additives
T 70% (bovine thrombin): 1.3 days

thrombin
T 70% (human thrombin [3]; refrigerator storage (around 5° C.)): 36 days
T 70% (human thrombin [3]; room temperature (around 21° C.)): 5.4 days
T 70% (human thrombin [1]; 15.0 activity units/ml human thrombin in HEPES buffer, pH 7.4): 23 days
